# Assay results: ChEMBL document CHEMBL1149521, “Synthesis of novel keto-ACE analogues as domain-selective angiotensin I-converting enzyme inhibitors” (Bioorg Med Chem Lett, 2006)
# pKi: −log10 of the molar value.
# How the values were obtained:
# [1] = molecular target: Angiotensin-converting enzyme (Homo sapiens, UniProt P12821); experiment: Inhibition of recombinant ACE N domain
# [2] = Selectivity for rabbit testis ACE C domain over human ACE N domain
# [3] = molecular target: T1, Angiotensin-converting enzyme (Oryctolagus cuniculus, UniProt P12822); experiment: Inhibition of rabbit testis recombinant ACE C domain
# T1 sequence (P12822 whole entry): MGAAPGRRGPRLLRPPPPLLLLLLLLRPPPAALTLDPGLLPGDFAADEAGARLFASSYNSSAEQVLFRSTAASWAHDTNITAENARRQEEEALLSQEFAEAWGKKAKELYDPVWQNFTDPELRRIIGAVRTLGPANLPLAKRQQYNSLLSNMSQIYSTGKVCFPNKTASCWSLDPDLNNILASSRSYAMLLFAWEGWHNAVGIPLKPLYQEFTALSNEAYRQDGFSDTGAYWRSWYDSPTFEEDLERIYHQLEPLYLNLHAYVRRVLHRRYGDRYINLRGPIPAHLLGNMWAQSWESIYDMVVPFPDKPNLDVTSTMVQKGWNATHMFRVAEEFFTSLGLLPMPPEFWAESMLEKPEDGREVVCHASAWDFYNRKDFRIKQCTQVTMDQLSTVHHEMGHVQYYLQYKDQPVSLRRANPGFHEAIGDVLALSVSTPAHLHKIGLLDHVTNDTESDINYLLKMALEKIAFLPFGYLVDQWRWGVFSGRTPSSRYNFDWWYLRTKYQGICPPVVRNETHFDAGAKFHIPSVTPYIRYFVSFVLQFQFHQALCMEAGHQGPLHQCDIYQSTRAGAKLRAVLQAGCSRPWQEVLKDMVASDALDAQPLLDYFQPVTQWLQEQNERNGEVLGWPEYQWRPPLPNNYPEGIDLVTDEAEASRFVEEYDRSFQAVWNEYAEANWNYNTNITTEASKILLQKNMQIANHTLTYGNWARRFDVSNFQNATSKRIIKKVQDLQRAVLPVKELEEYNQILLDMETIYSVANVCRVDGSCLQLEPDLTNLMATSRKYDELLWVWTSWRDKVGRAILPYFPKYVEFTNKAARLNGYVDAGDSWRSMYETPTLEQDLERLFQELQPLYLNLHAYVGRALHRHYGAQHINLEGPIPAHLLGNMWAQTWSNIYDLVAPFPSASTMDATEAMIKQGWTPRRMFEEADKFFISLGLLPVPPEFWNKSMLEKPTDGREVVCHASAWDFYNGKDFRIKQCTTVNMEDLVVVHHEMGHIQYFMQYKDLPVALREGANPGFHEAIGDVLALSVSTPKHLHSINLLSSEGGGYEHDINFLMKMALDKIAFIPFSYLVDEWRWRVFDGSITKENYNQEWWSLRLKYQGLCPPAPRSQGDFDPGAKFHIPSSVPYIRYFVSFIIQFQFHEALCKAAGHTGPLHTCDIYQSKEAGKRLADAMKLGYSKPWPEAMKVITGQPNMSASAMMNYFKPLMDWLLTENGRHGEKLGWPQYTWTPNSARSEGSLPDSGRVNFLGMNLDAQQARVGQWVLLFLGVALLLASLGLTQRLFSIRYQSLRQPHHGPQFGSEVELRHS
# Chain of Angiotensin-converting enzyme (Homo sapiens, UniProt P12821) (P12821 whole entry): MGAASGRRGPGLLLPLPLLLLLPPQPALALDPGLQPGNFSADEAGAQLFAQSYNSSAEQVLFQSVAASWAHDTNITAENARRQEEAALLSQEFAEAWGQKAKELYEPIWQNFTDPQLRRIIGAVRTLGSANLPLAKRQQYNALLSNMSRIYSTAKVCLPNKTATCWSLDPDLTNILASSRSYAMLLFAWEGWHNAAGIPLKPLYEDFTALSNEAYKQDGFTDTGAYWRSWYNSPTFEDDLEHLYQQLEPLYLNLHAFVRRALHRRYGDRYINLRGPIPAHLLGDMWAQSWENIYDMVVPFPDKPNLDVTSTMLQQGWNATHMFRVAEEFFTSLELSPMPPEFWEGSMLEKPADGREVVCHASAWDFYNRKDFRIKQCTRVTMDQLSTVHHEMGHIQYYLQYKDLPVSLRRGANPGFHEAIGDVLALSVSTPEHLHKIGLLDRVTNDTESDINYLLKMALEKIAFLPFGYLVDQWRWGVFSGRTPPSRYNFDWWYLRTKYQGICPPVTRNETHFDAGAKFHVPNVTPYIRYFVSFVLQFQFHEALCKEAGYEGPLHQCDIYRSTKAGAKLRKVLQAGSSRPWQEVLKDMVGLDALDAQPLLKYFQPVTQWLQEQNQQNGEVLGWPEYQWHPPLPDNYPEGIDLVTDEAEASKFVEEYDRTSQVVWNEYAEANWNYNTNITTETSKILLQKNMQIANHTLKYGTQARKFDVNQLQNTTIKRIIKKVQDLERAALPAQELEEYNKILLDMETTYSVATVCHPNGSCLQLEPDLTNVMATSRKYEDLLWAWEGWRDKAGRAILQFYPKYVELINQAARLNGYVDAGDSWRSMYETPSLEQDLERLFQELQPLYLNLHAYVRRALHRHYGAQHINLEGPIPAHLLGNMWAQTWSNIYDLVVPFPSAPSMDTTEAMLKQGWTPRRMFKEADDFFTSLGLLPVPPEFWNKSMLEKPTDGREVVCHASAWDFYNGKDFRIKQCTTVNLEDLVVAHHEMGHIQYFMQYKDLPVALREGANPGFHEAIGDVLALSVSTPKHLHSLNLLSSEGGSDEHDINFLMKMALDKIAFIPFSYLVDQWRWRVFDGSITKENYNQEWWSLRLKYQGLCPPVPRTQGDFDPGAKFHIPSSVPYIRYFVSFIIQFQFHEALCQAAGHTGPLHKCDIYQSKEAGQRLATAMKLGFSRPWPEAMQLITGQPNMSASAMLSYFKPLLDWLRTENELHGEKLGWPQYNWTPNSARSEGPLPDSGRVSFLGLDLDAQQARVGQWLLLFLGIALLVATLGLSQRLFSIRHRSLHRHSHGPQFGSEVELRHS
Compound,pKi [1],Ratio Ki [2],pKi [3]
CC(C)(C)OC(=O)N[C@@H](Cc1ccccc1)C(=O)CCC(=O)N[C@@H](Cc1c[nH]c2ccccc12)C(=O)O,4.88,0.04,3.42
O=C(CCC(=O)[C@H](Cc1ccccc1)NC(=O)c1ccccc1)N[C@@H](Cc1c[nH]c2ccccc12)C(=O)O,–,245,6.10
CC(C)(C)OC(=O)N[C@@H](Cc1ccccc1)C(=O)CCC(=O)N1CCC[C@H]1C(=O)O,–,0.2,3.84
NCCCC[C@H](N[C@@H](CCc1ccccc1)C(=O)O)C(=O)N1CCC[C@H]1C(=O)O [LISINOPRIL ANHYDROUS],–,–,7.29
CC(C)(C)OC(=O)N[C@@H](Cc1ccccc1)C(=O)CCC(=O)N[C@@H](Cc1ccccc1)C(=O)O,4.37,0.1,3.50
O=C(CCC(=O)[C@H](Cc1ccccc1)NC(=O)c1ccccc1)N[C@@H](Cc1ccccc1)C(=O)O,–,3.6,4.63
